Key:
[1] = system: TNF-α release from LPS-stimulated human peripheral blood mononuclear cells; assay: Cell based assay for TNF-α release, LPS stimulation of human PBMNC's; conditions: PBMC, LPS 20 ng/ml, overnight, ELISA, collective range for the listed compounds, units given within the value (μM to nM), read-out: IC50 (TNF-α release; printed as IC50 for p38 inhibitory activity)
Description: Cell based Assay for TNF-α release
Method of Isolation of Human Peripheral Blood Mononuclear Cells:
Human whole blood was collected in vacutainer tubes containing EDTA as an anti coagulant. A blood sample (7 ml) was carefully layered over 5 ml PMN Cell Isolation Medium (Robbins Scientific) in a 15 ml round bottom centrifuge tubes. The sample was centrifuged at 450-500×g for 30-35 minutes in a swing-out rotor at room temperature. After centrifugation the top band of cells were removed and washed 3 times with PBS w/o calcium or magnesium. The cells were centrifuged at 400×g for 10 minutes at room temperature. The cells were resuspended in Macrophage Serum Free Medium (Gibco BRL) at concentration of 2 million cells/ml.
LPS Stimulation of Human PBMNC's:
PBM cells (0.1 ml; 2 million/ml) were co-incubated with 0.1 ml of compound (10-0.41 μM, final concentration) for 1 hour in flat bottom 96 well microtiter plate. Compounds were dissolved in DMSO initially and diluted in TCM for a final concentration of 0.1% DMSO. LPS (Cal biochem, 20 ng/ml, final concentration) was then added at volume of 0.010 ml. Cultures were incubated overnight at 37° C.). Supernatant were then removed and tested by ELISA for TNF-α release. Viability was analyzed using MTT. After 0.1 ml supernatant was collected, 0.1 ml of 0.25 mg/ml of MTT was added to remaining 0.1 ml of cells. The cells were incubated at 37° C. for 2-4 hours, then the O.D was measured at 490-650 nm.
The TNF-α levels released in the culture medium was quantitated by ELISA. Inhibitory potency was expressed as IC50.

activated p38 = activated p38 (Homo sapiens, UniProt Q16539); assay: p38 inhibition assay: inhibition of phosphorylation of EGF receptor peptide; format: biochemical; conditions: compound behaviour in the assay
Description: p38 Inhibition Assays—Inhibition of Phosphorylation of EGF Receptor Peptide
This assay was carried out in the presence of 10 mM MgCl2, 25 mM β-glycerophosphate, 10% glycerol and 100 mM HEPES buffer at pH 7.6. For a typical IC50 determination, a stock solution was prepared containing all of the above components and activated p38 (5 nM). The stock solution was aliquoted into vials. A fixed volume of DMSO or inhibitor in DMSO (final concentration of DMSO in reaction was 5%) was introduced to each vial, mixed and incubated for 15 minutes at room temperature.
EGF receptor peptide, […], a phosphoryl acceptor in p38-catalysed kinase reaction (1), was added to each vial to a final concentration of 200 μM. The kinase reaction was initiated with ATP (100 μm) and the vials were incubated at 30C. After 30 minutes, the reactions were quenched with equal volume of 10% trifluoroacetic acid (TFA).
The phosphorylated peptide was quantified by HPLC analysis. Separation of the phosphorylated peptide from the unphosphorylated peptide was achieved on a reverse phase column (Deltapak, 5 μM, C18 100D, part no. 011795) with a binary gradient of water and acetonitrile, each containing 0.1% TFA. IC50 (concentration of inhibitor yielding 50% inhibition) was determined by plotting the % activity remaining against inhibitor concentration.

Chain of activated p38 (Q16539 whole entry): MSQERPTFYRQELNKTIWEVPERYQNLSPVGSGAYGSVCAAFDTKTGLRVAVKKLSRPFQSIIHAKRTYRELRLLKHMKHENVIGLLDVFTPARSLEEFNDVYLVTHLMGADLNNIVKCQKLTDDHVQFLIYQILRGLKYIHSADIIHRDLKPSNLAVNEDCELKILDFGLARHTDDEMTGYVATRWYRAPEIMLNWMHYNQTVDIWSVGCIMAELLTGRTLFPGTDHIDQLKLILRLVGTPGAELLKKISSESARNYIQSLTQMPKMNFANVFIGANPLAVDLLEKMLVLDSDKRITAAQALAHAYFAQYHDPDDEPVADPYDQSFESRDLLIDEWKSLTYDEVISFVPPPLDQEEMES

| IC50 [1] | SMILES | further results |
| --- | --- | --- |
| 0.14 to 3 µM | Cn1c(=O)c(-c2ccccc2Cl)cc2cnc(NN3CC4CCCC4C3)nc21 (stereo not drawn) [Compound No. 1, 6-(2-Chlorophenyl)-2-(3-azabicyclo[3.3.0]oct-3-yl-amino)-8-methylpyrido[2,3-d]pyrimidin-7(8H)-one] | – |
| – | Cc1ccccc1-c1cc2cnc(NN3CC4CCCC4C3)nc2n(C)c1=O (stereo not drawn) [Compound No. 2, 6-(2-Methylphenyl)-2-(3-azabicyclo[3.3.0]oct-3-yl-amino)-8-methylpyrido[2,3-d]pyrimidin-7(8H)-one] | melting point: 69.8 to 79.8 °C |
| – | O=c1c(-c2ccccc2F)cc2cnc(NN3CC4CCCC4C3)nc2n1Cc1ccc(F)cc1 (stereo not drawn) [Compound No. 13, 6-(2-Fluorophenyl)-2-(3-azabicyclo[3.3.0]oct-3-yl-amino)-8-(4-fluorobenzyl)-pyrido[2,3-d]pyrimidin-7(8H)-one] | observation in the p38 enzyme assay (activated p38): formed a precipitate |
| 0.14 to 3 µM | CCOC(=O)C(C)n1c(=O)c(-c2ccccc2F)cc2cnc(NN3CC4CCCC4C3)nc21 (stereo not drawn) [Compound No. 20, Ethyl 2-[6-(2-fluorophenyl)-2-(3-azabicyclo[3.3.0]oct-3-yl-amino)-7-oxopyrido[2,3-d]pyrimidin-8(7H)-yl]propanoate] | – |
| 0.14 to 3 µM | CCOC(=O)C(C)n1c(=O)c(-c2ccccc2C)cc2cnc(NN3CC4CCCC4C3)nc21 (stereo not drawn) [Compound No. 21, Ethyl 2-[6-(2-methylphenyl)-2-(3-azabicyclo [3.3.0]oct-3-yl-amino)-7-oxopyrido[2,3-d]pyrimidin-8(7H)-yl]propanoate] | – |
| 0.14 to 3 µM | O=c1c(-c2ccccc2F)cc2cnc(NN3CC4CCCC4C3)nc2n1C1CCCC1 (stereo not drawn) [Compound No. 22, 6-(2-Fluorophenyl)-2-(3-azabicyclo[3.3.0]oct-3-yl-amino)-8-(cyclopentyl)pyrido[2,3-d]pyrimidin-7(8H)-one] | – |
| 0.14 to 3 µM | O=c1c(-c2ccccc2F)cc2cnc(NN3CC4CCCC4C3)nc2n1CC1CC1 (stereo not drawn) [Compound No. 23, 6-(2-Fluorophenyl)-2-(3-azabicyclo[3.3.0]oct-3-yl-amino)-8-(cyclopropylmethyl)-pyrido[2,3-d]pyrimidin-7(8H)-one] | – |
| 0.14 to 3 µM | CCOCCn1c(=O)c(-c2ccccc2Cl)cc2cnc(NN3CC4CCCC4C3)nc21 (stereo not drawn) [Compound No. 25, 6-(2-Chlorophenyl)-2-(3-azabicyclo[3.3.0]oct-3-yl-amino)-8-(2-ethoxyethyl)pyrido[2,3-d]pyrimidin-7(8H)-one] | – |
| 0.14 to 3 µM | CCCCS(=O)(=O)NCCn1c(=O)c(-c2ccccc2C)cc2cnc(NN3CC4CCCC4C3)nc21 (stereo not drawn) [Compound No. 40, N-{2-[2-(3-azabicyclo[3.3.0]oct-3-yl-amino)-6-(2-methylphenyl)-7-oxopyrido[2,3-d]pyrimidin-8(7H)-yl]ethyl}butane-1-sulfonamide] | – |
| 0.14 to 3 µM | CCOC(=O)Cn1c(=O)c(-c2ccccc2C)cc2cnc(NN3CC4CCCC4C3)nc21 (stereo not drawn) [Compound No. 44, Ethyl[2-(3-azabicyclo[3.3.0]oct-3-yl-amino)-6-(2-methylphenyl)-7-oxopyrido[2,3-d]pyrimidin-8(7H)-yl]acetate] | – |
| 0.14 to 3 µM | Cc1ccccc1-c1cc2cnc(NN3CC4CCCC4C3)nc2n(CC(=O)NC2CCC2)c1=O (stereo not drawn) [Compound No. 47, N-Cyclobutyl-2-[2-(3-azabicyclo[3.3.0]oct-3-yl-amino)-6-(2-methylphenyl)-7-oxopyrido[2,3-d]pyrimidin-8(7H)-yl]acetamide] | – |
| 0.14 to 3 µM | COCCn1c(=O)c(-c2ccccc2C)cc2cnc(NN3CC4CCCC4C3)nc21 (stereo not drawn) [Compound No. 50, 6-(2-Methylphenyl)-2-(3-azabicyclo[3.3.0]oct-3-yl-amino)-8-(2-methoxyethyl)-pyrido[2,3-d]pyrimidin-7(8H)-one] | – |
| 0.14 to 3 µM | CCOCCn1c(=O)c(-c2ccccc2C)cc2cnc(NN3CC4CCCC4C3)nc21 (stereo not drawn) [Compound No. 51, 6-(2-Methylphenyl)-2-(3-azabicyclo[3.3.0]oct-3-yl-amino)-8-(2-ethoxyethyl)pyrido[2,3-d]pyrimidin-7(8H)-one] | – |
| 0.14 to 3 µM | O=c1c(-c2ccccc2Cl)cc2cnc(NN3CC4CCCC4C3)nc2n1C1CC1 (stereo not drawn) [Compound No. 52, 6-(2-Chlorophenyl)-2-(3-azabicyclo[3.3.0]oct-3-yl-amino)-8-cyclopropyl-pyrido[2,3-d]pyrimidin-7(8H)-one] | – |
| 0.14 to 3 µM | O=c1c(Oc2ccccc2F)cc2cnc(NN3CC4CCCC4C3)nc2n1C1CC1 (stereo not drawn) [Compound No. 59, 6-(2-Fluorophenoxy)-2-(3-azabicyclo[3.3.0]oct-3-yl-amino)-8-cyclopropyl-pyrido[2,3-d]pyrimidin-7(8H)-one] | – |
| 0.14 to 3 µM | Cn1c(=O)c(-c2c(Cl)cccc2Cl)cc2cnc(NN3CC4CCCC4C3)nc21 (stereo not drawn) [Compound No. 68, 6-(2,6-Dichlorophenyl)-2-(3-azabicyclo[3.3.0]oct-3-yl-amino)-8-methylpyrido[2,3-d]pyrimidin-7(8H)-one] | – |
| 0.14 to 3 µM | Cn1c(=O)c(-c2ccccc2[N+](=O)[O-])cc2cnc(NN3CC4CCCC4C3)nc21 (stereo not drawn) [Compound No. 69, 6-(2-Nitrophenyl)-2-(3-azabicyclo [3.3.0]oct-3-yl-amino)-8-methyl-pyrido[2,3-d]pyrimidin-7(8H)-one] | – |
| 0.14 to 3 µM | Cn1c(=O)c(-c2ccc(F)cc2Cl)cc2cnc(NN3CC4CCCC4C3)nc21 (stereo not drawn) [Compound No. 71, 6-(2-Chloro-4-fluorophenyl)-2-(3-azabicyclo [3.3.0]oct-3-yl-amino)-8-methylpyrido[2,3-d]pyrimidin-7(8H)-one] | – |
